Data: US20220306640A1, “HYDANTOIN DERIVATIVE” (ONO PHARMACEUTICAL CO., LTD., priority 2019, published 2022)

Biological target: T1, DDR1 phosphorylation in T-47D (ATCC, HTB-133) cells (Homo sapiens, UniProt Q08345)
T1 construct: host or cells: T-47D
Test: Measurement of DDR1 phosphorylation suppression rate by using T-47D cells (p-DDR1 ELISA)
Format: cell-based
Details: collagen Type I 10 μg/ml, p-DDR1 (panTyr) ELISA
In short: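 T-47D cells were pre-treated with compound 24 h in RPMI/0.1% BSA (0.1% DMSO, 6-point 10-fold series), then stimulated with rat tail collagen I (10 μg/ml) for 24 h at 37 °C. Lysate p-DDR1 (panTyr) was read by ELISA; IC50 derived from % inhibition versus collagen and no-collagen controls.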

T1 sequence (Q08345 19-913): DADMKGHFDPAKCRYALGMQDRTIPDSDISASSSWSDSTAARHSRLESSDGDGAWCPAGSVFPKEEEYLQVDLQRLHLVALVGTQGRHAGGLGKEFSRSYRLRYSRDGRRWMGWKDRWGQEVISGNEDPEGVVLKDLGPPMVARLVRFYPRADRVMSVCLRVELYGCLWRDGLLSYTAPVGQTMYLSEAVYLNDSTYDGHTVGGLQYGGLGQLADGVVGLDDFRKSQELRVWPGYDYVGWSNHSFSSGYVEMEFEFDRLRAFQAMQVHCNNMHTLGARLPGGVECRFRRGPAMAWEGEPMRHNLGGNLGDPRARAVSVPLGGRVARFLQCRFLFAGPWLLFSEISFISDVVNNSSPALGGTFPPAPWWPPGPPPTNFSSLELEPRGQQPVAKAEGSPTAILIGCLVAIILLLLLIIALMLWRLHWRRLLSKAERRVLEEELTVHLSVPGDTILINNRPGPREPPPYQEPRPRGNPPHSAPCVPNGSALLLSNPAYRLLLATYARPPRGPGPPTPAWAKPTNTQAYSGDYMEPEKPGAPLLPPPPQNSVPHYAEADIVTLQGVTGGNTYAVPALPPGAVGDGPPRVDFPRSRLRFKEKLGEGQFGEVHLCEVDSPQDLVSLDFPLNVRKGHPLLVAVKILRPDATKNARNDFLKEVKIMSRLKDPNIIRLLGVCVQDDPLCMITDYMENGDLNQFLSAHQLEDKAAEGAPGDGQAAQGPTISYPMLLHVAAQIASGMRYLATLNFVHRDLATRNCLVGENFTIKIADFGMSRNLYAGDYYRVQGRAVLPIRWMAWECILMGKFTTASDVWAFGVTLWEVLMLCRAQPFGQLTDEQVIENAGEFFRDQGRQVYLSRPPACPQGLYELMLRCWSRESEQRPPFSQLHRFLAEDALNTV

IC50: 1 nM
SMILES: Cc1cc(Oc2ccnc(N)n2)ccc1N1C(=O)CN(c2ccc(F)c(OC(F)(F)F)c2)C1=O [Example 3(110), 3-{4-[(2-amino-4-pyrimidinyl)oxy]-2-methylphenyl}-1-[4-fluoro-3-(trifluoromethoxy)phenyl]-2,4-imidazolidinedione]
